Measured values: patent US5712417A, “Inhibitors of retroviral proteases” (Abbott Laboratories, priority 1989, dated 1998)
Structures can show the parent of a compound that is named as a salt.

biological target: T1, HIV protease (Human immunodeficiency virus type 1 group M subtype B, UniProt P04585); experiment: Inhibition of HIV protease (cleavage of H-Ser-Phe-Asn-Phe-Opr-Gln-Ile-OH, HPLC); type: biochemical; conditions: inhibitor concentration at which the cleavage rate is halved; pH 6, 2 hours; read-out: IC50
T1 construct: HIV protease consists of 99 amino acids and is evidently split off by itself from the pol polyprotein
Excerpt: The compounds of the formula (I) according to the invention have enzyme-inhibiting properties. In particular, they inhibit the action of retroviral aspartyl proteases, such as that of HIV protease. Their enzyme-inhibitory action, which is in the milli- to subnanomolar range, can be determined as follows.
The heptapeptide: H-Ser-Phe-Asn-Phe-Pro-Gln-Ile-OH (P. L. Darke et al., Biophys. Res. Commun. 156 (1988) 297-303), inter alia, has hitherto been used as the substrate of HIV protease. HIV protease cleaves the substrate here between the second Phe and Pro.
General instructions for testing inhibitors of HIV proteases: a) Preparation of the substrate solution:
2 mg of H-Ser-Phe-Asn-Phe-Opr-Gln-Ile-OH (H-Opr-OH=5-oxaproline) are dissolved in 1 ml of MGTE15 buffer (use of ultrasound if necessary) and the solution is then filtered over a sterile filter (0.45 μm). […]
b) Preparation of the inhibitor solution:
2.5 times the desired molarity of the inhibitor per ml of solution are weighed out and dissolved in DMSO (10% of the final volume). The solution is diluted to the final volume with MGTE15 buffer and filtered over a sterile filter (0.45 μm). […]
c) Preparation of the protease solution:
5 μl of the HIV protease solution are diluted with MGTE25 buffer as required.
10 μl portions of the substrate solution are pipetted into test-tubes (16×100) with a screw cap. For the blank experiment, 10 μl of MGTE15 buffer containing 10% of DMSO are pipetted into a test-tube. 10 μl portions of the inhibitor solutions are added to the other test-tubes. The mixtures are incubated at 37° C. for 5-10 minutes and 5 μl of the protease solution are then added to each sample, After reaction at 35° C. for 2 hours, 10 or 20 μl (depending on the sensitivity of the HPLC apparatus) of each sample are then pipetted off, introduced into microvials and diluted with 120 μl of the HPLC mobile phase. […]
e) Conditions for the HPLC analysis:
20% (weight/weight) of aceto-
Column: Merck ®LICHROSORB RP18 (5 μm) 250×4
Column temperature: 42° C.
Detector parameters: 215 nm, 0.08 AUF, 18.2° C.
Analysis time: 11 minutes
Retention time of the substrate: 8.1 minutes
Retention time of the N-terminal tetrapeptide: 3.9 minutes
20 mM morpholinoethanesulfonic acid (MES)
15% (weight/volume) of glycerol
0.1% (volume/volume) of Triton ×100
1 mM phenylmethylsulfonyl fluoride (PMSF)
25% (weight/volume) of glycerol, additionally 1 mM dithiothreitol (DTT) The MES, EDTA, NaCl, DTT and PMSF are weighed into a conical flask and dissolved in a little water and the pH is brought to 6. The corresponding amount of glycerol is weighed into a measuring flask and ®Triton ×100 is pipetted in. The aqueous solution is transferred to the measuring flask and made up to the mark with water.
A 0.1M solution is prepared from orthophosphoric acid (FLUKA extra pure analytical grade). This solution is brought to exactly pH 2.5 with triethylamine (FLUKA extra pure analytical grade). The weight of the solution is determined and the corresponding amount of acetonitrile (fume cupboard) is weighed in. The mixture is mixed thoroughly and degassed with helium 5.0 for about 5 minutes.
Under the conditions chosen here, heptapeptides are separated from the N-terminal tetrapeptide formed during enzymatic cleavage. The percentage content of the tetrapeptide peak in respect of the sum of tetrapeptide+heptapeptide corresponds to the cleaving rate. The following IC50 values indicate the inhibitor concentration at which the cleavage rate is halved.

| Structure (SMILES) | IC50 |
| --- | --- |
| CC(C)[C@H](NC(=O)[C@@H](N)Cc1ccccc1)C(=O)N[C@@H](CCc1ccccc1)[C@@H](O)[C@H](O)[C@H](CCc1ccccc1)NC(=O)[C@@H](NC(=O)[C@@H](N)Cc1ccccc1)C(C)C [Example 148, N,N'-bis-(L-Phenylalanyl-L-valyl)-3S,6S-diamino-1,8-diphenyloctane-4R,5R-diol dihydrochloride] | 36 nM |
| CC(C)[C@H](NC(=O)[C@@H]1Cc2ccccc2CN1C(=O)OCc1ccccc1)C(=O)N[C@@H](Cc1ccccc1)[C@@H](O)[C@H](O)[C@H](Cc1ccccc1)NC(=O)[C@@H](NC(=O)[C@@H]1Cc2ccccc2CN1C(=O)OCc1ccccc1)C(C)C [Example 119, N,N'-bis-<Benzyloxycarbonyl-L-1,2,3,4-tetrahydro-isoquinolin-3-ylcarbonyl-L-valyl>-2S, 5S-diamino-1,6-diphenylhexane-3R, 4R-diol] | 10000 nM |
| Cc1ccc(S(=O)(=O)N[C@@H](Cc2ccc3ccccc3c2)C(=O)N[C@H](C(=O)N[C@@H](Cc2ccccc2)[C@@H](O)[C@H](O)[C@H](Cc2ccccc2)NC(=O)[C@@H](NC(=O)[C@H](Cc2ccc3ccccc3c2)NS(=O)(=O)c2ccc(C)cc2)C(C)C)C(C)C)cc1 [Example 124, N,N'-bis-<N-Tosyl-β-naphthylalanyl-L-valyl>-2S, 5S-diamino-1,6-diphenylhexane-3R, 4R-diol] | 11 nM |
| CC(C)[C@H](NC(=O)[C@H](CCC(=O)O)NC(=O)OC(C)(C)C)C(=O)N[C@@H](Cc1ccccc1)[C@H](O)[C@@H](O)[C@H](Cc1ccccc1)NC(=O)[C@@H](NC(=O)[C@H](CCC(=O)O)NC(=O)OC(C)(C)C)C(C)C [Example 83, N,N,-bis-<tert.-Butoxycarbonyl-L-glutamyl-L-valyl>-2S,5S-diamino-1,6-diphenylhexane-3S,4S-diol] | 10 nM |
| CC(C)[C@H](NC(=O)[C@H](CCCCNC(=O)OCc1ccccc1)NC(=O)OC(C)(C)C)C(=O)N[C@@H](Cc1ccccc1)[C@@H](O)[C@H](O)[C@H](Cc1ccccc1)NC(=O)[C@@H](NC(=O)[C@H](CCCCNC(=O)OCc1ccccc1)NC(=O)OC(C)(C)C)C(C)C [Example 80] | 28 nM |
| CC(C)[C@H](NC(=O)CNC(=O)OC(C)(C)C)C(=O)N[C@@H](Cc1ccccc1)[C@@H](O)[C@H](O)[C@H](Cc1ccccc1)NC(=O)[C@@H](NC(=O)CNC(=O)OC(C)(C)C)C(C)C [Example 86, N,N'-bis-<tert.-Butoxycarbonylglycyl-L-valyl>-2S,5S-diamino-1,6-diphenylhexane-3R,4R-diol] | 2.2 nM |
| CC(C)[C@H](NC(=O)[C@H](N)Cc1ccccc1)C(=O)N[C@@H](Cc1ccccc1)[C@H](O)[C@@H](O)[C@H](Cc1ccccc1)NC(=O)[C@@H](NC(=O)[C@H](N)Cc1ccccc1)C(C)C [Example 61, N,N'-bis-<D-Phenylalanyl-L-valyl>-2S,5S-diamino-1,6-diphenylhexane-3S,4S-diol dihydrochloride] | 400 nM |
| N[C@@H](Cc1ccccc1)C(=O)N[C@H](C(=O)N[C@@H](Cc1ccccc1)[C@@H](O)[C@H](O)[C@H](Cc1ccccc1)NC(=O)[C@@H](NC(=O)[C@@H](N)Cc1ccccc1)C1CCCCC1)C1CCCCC1 [Example 72, N,N'-bis-<L-Phenylalanyl-L-cyclohexylglycyl>-2S,5S-diamino-1,6-diphenylhexane-3R,4R-diol dihydrochloride] | 30 nM |
| CC(C)[C@H](NC(=O)[C@H](Cc1c[nH]c2ccccc12)NC(=O)OCc1ccccc1)C(=O)N[C@@H](Cc1ccccc1)[C@@H](O)[C@H](O)[C@H](Cc1ccccc1)NC(=O)[C@@H](NC(=O)[C@H](Cc1c[nH]c2ccccc12)NC(=O)OCc1ccccc1)C(C)C [Example 117, N,N'-bis-<Benzyloxycarbonyl-L-tryptophyl-L-valyl>-2S,5S-diamino-1,6-diphenylhexane-3R,4R-diol] | 19 nM |
| CC(C)C(NC(=O)C(CN)Cc1ccccc1)C(=O)NC(Cc1ccccc1)C(O)C(O)C(Cc1ccccc1)NC(=O)C(NC(=O)C(CN)Cc1ccccc1)C(C)C (single isomer, unassigned) [Example 104, N,N'-bis-<(3-Amino-2-benzyl)-propionyl-L-valyl>-2S,5S-diamino-1,6-diphenylhexane-3R,4R-diol dihydrochloride] | 24 nM |

Now from value to molecule:

| IC50 | Structure (SMILES) |
| --- | --- |
| 1.3 nM | CC(C)[C@H](NC(=O)[C@@H](N)Cc1cccc2ccccc12)C(=O)N[C@@H](Cc1ccccc1)[C@@H](O)[C@H](O)[C@H](Cc1ccccc1)NC(=O)[C@@H](NC(=O)[C@@H](N)Cc1cccc2ccccc12)C(C)C [Example 39, N,N'-bis-(L-(1-Naphthyl)-alanyl-L-valyl)-2S,5S-diamino-1,6-diphenylhexane-3R,4R-diol dihydrochloride] |
| 1.3 nM | CC(C)(C)[C@H](NC(=O)[C@H](Cc1ccccc1)CS(=O)(=O)C(C)(C)C)C(=O)N[C@@H](Cc1ccccc1)[C@@H](O)[C@H](O)[C@H](Cc1ccccc1)NC(=O)[C@@H](NC(=O)[C@H](Cc1ccccc1)CS(=O)(=O)C(C)(C)C)C(C)(C)C [Example 91, N,N'-bis-<(2S-(1,1-Dimethylethylsulfonylmethyl)-3-phenyl-propionyl)-L-tert.-butylglycyl>-2S, 5S-diamino-1,6-diphenylhexane-3R, 4R-diol] |
| 10 nM | CC(C)[C@H](NC(=O)[C@H](Cc1cccc2ccccc12)CS(=O)(=O)C(C)(C)C)C(=O)N[C@@H](Cc1ccc2c(c1)OCO2)[C@@H](O)[C@H](O)[C@H](Cc1ccc2c(c1)OCO2)NC(=O)[C@@H](NC(=O)[C@H](Cc1cccc2ccccc12)CS(=O)(=O)C(C)(C)C)C(C)C [Example 155] |
| 1 nM | CC(C)[C@H](NC(=O)[C@@H](N)Cc1ccccc1)C(=O)N[C@@H](CC1CCCCC1)[C@H](O)[C@@H](O)[C@H](CC1CCCCC1)NC(=O)[C@@H](NC(=O)[C@@H](N)Cc1ccccc1)C(C)C [Example 43, N,N'-bis-[L-Phenylalanyl-L-valyl]-2S,5S-diamino-1,6-dicyclohexylhexane-3S,4S-diol dihydrochloride] |
| 6.5 nM | CC(C)[C@H](NC(=O)[C@@H](O)CCc1ccccc1)C(=O)N[C@@H](Cc1ccccc1)[C@H](O)[C@@H](O)[C@H](Cc1ccccc1)NC(=O)[C@@H](NC(=O)[C@@H](O)CCc1ccccc1)C(C)C [Example 94, N,N'-bis-<(2S-Hydroxy-4-phenylbutyryl)-L-valyl>-2S,5S-diamino-1,6-diphenylhexane-3S,4S-diol] |
| 1.8 nM | CC[C@H](C)[C@H](NC(=O)[C@@H](N)Cc1ccccc1)C(=O)N[C@@H](Cc1ccccc1)[C@H](O)[C@@H](O)[C@H](Cc1ccccc1)NC(=O)[C@@H](NC(=O)[C@@H](N)Cc1ccccc1)[C@@H](C)CC [Example 65, N,N'-bis-<L-Phenylalanyl-L-isoleucyl>-2S,5S-diamino-1,6-diphenylhexane-3S,4S-diol dihydrochloride] |

same assay, conditions: pH 6; read-out: IC50

| IC50 | Structure (SMILES) |
| --- | --- |
| 1.2 nM | CC(C)[C@H](NC(=O)[C@H](Cc1ccccc1)NC(=O)[C@H]1CC[C@@H](N)CC1)C(=O)N[C@@H](Cc1ccccc1)[C@H](O)[C@@H](O)[C@H](Cc1ccccc1)NC(=O)[C@@H](NC(=O)[C@H](Cc1ccccc1)NC(=O)[C@H]1CC[C@@H](N)CC1)C(C)C [Example 49, N,N'-bis-(4Z-Aminocyclohexanecarbonyl-L-phenylalanyl-L-valyl)-2S, 5S-diamino-1,6-diphenyl-3S, 5S-diol dihydrochloride] |

same assay, conditions: read-out: IC50

| Structure (SMILES) | IC50 |
| --- | --- |
| CC(C)(C)OC(=O)N[C@@H](Cc1ccccc1)[C@H](O)[C@H](O)[C@H](Cc1ccccc1)NC(=O)OC(C)(C)C [Example 5, N,N'-bis-(tert.-Butoxycarbonyl)-2S,5S-diamino-1,6-diphenylhexane-3R,4S-diol] | 3600 nM |
